According to patent US20240376121A1, “COMPOUNDS AND USES THEREOF” (Foghorn Therapeutics Inc., priority 2021, published 2024):

Columns and labels:
[1] = target: T1, HiBit-BRM fusion protein (Homo sapiens, UniProt P51531); assay: HiBiT-BRM cell-based degradation assay (Nano-Glo HiBiT Lytic Detection); settings: stable HeLa cell line expressing HiBiT-BRM, 24 h incubation; for BRM HiBit Degradation Maximum (%): top dose 30 μM; for DC50: read-out: BRM HiBit Degradation IC50
T1 construct: expressed in transfected cells
T1 sequence (P51531 whole entry, the tested form may be a part): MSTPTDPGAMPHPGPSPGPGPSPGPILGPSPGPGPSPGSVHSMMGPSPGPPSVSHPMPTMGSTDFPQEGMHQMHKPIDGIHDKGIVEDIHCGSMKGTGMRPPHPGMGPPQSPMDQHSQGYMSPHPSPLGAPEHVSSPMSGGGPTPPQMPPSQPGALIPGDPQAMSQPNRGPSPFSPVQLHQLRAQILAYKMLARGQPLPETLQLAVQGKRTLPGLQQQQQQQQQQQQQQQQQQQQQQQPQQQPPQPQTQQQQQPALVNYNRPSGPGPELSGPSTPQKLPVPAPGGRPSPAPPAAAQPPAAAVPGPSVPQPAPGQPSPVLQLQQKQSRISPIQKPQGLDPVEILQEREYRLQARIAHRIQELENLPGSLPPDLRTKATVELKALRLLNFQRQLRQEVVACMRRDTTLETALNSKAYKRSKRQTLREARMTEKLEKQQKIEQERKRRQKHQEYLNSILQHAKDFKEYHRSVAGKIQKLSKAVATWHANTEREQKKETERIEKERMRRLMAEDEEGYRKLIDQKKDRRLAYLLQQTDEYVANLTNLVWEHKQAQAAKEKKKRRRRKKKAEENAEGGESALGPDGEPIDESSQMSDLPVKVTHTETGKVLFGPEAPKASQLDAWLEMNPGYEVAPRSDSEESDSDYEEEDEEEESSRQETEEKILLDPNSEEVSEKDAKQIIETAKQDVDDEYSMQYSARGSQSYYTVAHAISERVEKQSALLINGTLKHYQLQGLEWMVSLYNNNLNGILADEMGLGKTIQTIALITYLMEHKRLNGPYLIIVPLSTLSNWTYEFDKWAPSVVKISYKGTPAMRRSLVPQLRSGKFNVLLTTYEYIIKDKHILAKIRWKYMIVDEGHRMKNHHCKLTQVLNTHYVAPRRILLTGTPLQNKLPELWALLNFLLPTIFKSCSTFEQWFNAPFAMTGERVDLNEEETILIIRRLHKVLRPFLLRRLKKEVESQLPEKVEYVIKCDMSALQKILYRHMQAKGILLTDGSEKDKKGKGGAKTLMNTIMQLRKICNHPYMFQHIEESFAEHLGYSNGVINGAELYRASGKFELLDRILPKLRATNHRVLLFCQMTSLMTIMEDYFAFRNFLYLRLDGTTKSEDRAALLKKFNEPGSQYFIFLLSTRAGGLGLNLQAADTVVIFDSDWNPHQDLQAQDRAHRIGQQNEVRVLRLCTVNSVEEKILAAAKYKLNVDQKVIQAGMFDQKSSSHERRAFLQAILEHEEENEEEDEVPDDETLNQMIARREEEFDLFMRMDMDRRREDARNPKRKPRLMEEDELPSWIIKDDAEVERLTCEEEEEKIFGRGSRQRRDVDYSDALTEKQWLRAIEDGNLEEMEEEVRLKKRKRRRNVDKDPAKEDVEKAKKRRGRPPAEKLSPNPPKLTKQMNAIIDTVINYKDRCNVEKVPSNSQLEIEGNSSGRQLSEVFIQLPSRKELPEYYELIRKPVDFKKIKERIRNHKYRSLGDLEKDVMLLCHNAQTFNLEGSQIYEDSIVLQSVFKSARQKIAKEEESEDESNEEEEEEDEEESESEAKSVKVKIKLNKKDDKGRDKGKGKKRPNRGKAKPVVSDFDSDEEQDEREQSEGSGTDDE
Summary of the method: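 HeLa cells stably expressing HiBiT-BRM were dosed with compounds (10-point 3-fold dilutions, 30 μM final top dose, duplicate) for 24 h. HiBiT signal was read by lytic LgBiT complementation luminescence. Percent degradation was normalised to DMSO (high control) and 2 μM of a reference BRM/BRG1 degrader (low control).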

[2] = target: T2, HiBit-BRG1 fusion protein (Homo sapiens, UniProt P51532); assay: HiBiT-BRG1 cell-based degradation assay (Nano-Glo HiBiT Lytic Detection); settings: stable HeLa cell line expressing HiBit-BRG1 and LgBit, 24 h incubation; for Dmax: top dose 30 μM, read-out: BRG1 HiBit Degradation Maximum (%); for DC50: read-out: BRMG1 HiBit Degradation IC50
T2 construct: expressed in transfected cells
T2 sequence (P51532 whole entry, the tested form may be a part): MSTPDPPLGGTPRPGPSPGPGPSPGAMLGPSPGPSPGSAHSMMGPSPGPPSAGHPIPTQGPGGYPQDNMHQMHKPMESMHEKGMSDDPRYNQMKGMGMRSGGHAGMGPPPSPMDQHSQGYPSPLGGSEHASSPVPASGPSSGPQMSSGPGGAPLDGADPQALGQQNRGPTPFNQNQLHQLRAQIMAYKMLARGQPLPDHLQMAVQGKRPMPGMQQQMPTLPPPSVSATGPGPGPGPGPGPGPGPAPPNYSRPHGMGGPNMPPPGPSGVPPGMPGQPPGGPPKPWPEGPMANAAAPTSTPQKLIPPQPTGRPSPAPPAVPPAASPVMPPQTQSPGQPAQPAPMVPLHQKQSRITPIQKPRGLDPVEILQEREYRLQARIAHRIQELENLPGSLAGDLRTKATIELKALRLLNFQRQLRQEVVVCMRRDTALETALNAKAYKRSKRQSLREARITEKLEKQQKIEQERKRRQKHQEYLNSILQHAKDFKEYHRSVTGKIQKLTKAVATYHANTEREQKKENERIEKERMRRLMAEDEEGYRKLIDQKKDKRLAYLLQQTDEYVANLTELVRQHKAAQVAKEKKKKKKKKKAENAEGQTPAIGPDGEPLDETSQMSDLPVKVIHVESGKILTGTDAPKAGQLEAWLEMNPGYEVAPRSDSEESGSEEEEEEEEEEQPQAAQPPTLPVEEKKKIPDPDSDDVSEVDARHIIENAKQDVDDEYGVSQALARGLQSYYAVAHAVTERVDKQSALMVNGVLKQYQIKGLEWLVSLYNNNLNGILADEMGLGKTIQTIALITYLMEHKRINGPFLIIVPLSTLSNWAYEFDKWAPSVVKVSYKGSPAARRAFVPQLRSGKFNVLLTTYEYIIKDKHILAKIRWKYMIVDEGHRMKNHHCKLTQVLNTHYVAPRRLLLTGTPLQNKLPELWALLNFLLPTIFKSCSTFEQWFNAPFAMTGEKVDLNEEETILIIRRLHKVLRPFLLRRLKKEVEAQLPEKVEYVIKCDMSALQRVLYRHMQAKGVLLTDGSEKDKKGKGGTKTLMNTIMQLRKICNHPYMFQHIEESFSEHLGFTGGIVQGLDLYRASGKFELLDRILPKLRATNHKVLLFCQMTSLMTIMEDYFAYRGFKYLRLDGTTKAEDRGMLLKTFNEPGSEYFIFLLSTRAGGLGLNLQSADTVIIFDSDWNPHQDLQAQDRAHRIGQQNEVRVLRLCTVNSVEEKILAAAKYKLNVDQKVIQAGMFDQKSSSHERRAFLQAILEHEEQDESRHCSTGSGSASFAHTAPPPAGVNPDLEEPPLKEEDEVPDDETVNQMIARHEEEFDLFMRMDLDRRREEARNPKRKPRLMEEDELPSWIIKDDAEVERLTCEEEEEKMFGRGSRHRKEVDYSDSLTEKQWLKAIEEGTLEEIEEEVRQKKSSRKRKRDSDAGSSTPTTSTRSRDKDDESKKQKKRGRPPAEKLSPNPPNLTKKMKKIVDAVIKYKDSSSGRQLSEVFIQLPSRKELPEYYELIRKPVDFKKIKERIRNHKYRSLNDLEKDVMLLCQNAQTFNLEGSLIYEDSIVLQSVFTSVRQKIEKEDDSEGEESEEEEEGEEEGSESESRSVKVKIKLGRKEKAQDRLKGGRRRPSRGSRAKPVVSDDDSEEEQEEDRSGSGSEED
Summary of the method: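 HeLa cells stably expressing HiBiT-BRG1 and LgBiT treated 24 h with 10-point 3-fold dilutions (top 30 μM, duplicate). Luminescence read after Nano-Glo HiBiT lytic reagent; % degradation relative to DMSO (high control) and 2 μM reference BRM/BRG1 degrader (low control).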

SMILES | BRM HiBit Degradation Maximum (%) [1] | DC50 [1] | Dmax [2] | DC50 [2]
Cc1ncsc1-c1ccc(CNC(=O)[C@@H]2C[C@@H](O)CN2C(=O)[C@@H](NC(=O)C2(F)CC2)C(C)(C)C)c(OCCN2CCC(c3cc4nnc(-c5ccccc5O)cc4s3)CC2)c1 [Compound 77, (2S,4R)-1-((S)-2-(1-fluorocyclopropane-1-carboxamido)-3,3-dimethylbutanoyl)-4-hydroxy-N-(2-(2-(4-(3-(2-hydroxyphenyl)thieno[3,2-c]pyridazin-6-yl)piperidin-1-yl)ethoxy)-4-(4-methylthiazol-5-yl)benzyl)pyrrolidine-2-carboxamide] | C (“C” indicates maximum degradation < 50%) | ≥ 1000 nM | < 50% | ≥ 1000 nM
Cc1ncsc1-c1ccc(CNC(=O)[C@@H]2C[C@@H](O)CN2C(=O)[C@@H](NC(=O)CCN2CCC(c3cc4nnc(-c5ccccc5O)cc4s3)CC2)C(C)(C)C)cc1 [Compound 78, (2S,4R)-4-hydroxy-1-((S)-2-(3-(4-(3-(2-hydroxyphenyl)thieno[3,2-c]pyridazin-6-yl)piperidin-1-yl)propanamido)-3,3-dimethylbutanoyl)-N-(4-(4-methylthiazol-5-yl)benzyl)pyrrolidine-2-carboxamide] | B (“B” indicates maximum degradation ≥ 50%) | ≥ 100 nM | ≥ 75% | ≥ 1000 nM
Cc1ncsc1-c1ccc(CNC(=O)[C@@H]2C[C@@H](O)CN2C(=O)[C@@H](NC(=O)CCC(=O)N2CCC(c3cc4nnc(-c5ccccc5O)cc4s3)CC2)C(C)(C)C)cc1 [Compound 79, (2S,4R)-4-hydroxy-1-((S)-2-(4-(4-(3-(2-hydroxyphenyl)thieno[3,2-c]pyridazin-6-yl)piperidin-1-yl)-4-oxobutanamido)-3,3-dimethylbutanoyl)-N-(4-(4-methylthiazol-5-yl)benzyl)pyrrolidine-2-carboxamide] | C (“C” indicates maximum degradation < 50%) | ≥ 100 nM | < 50% | ≥ 1000 nM
Cc1ncsc1-c1ccc(CNC(=O)[C@@H]2C[C@@H](O)CN2C(=O)[C@@H](NC(=O)CCCC(=O)N2CCC(c3cc4nnc(-c5ccccc5O)cc4s3)CC2)C(C)(C)C)cc1 [Compound 80, (2S,4R)-4-hydroxy-1-((S)-2-(5-(4-(3-(2-hydroxyphenyl)thieno[3,2-c]pyridazin-6-yl)piperidin-1-yl)-5-oxopentanamido)-3,3-dimethylbutanoyl)-N-(4-(4-methylthiazol-5-yl)benzyl)pyrrolidine-2-carboxamide] | B (“B” indicates maximum degradation ≥ 50%) | ≥ 100 nM | < 50% | ≥ 1000 nM
Cc1ncsc1-c1ccc(CNC(=O)[C@@H]2C[C@@H](O)CN2C(=O)[C@@H](NC(=O)C2(F)CC2)C(C)(C)C)c(OCCCN2CCC(c3sc4nnc(-c5ccccc5O)cc4c3C)CC2)c1 [Compound 81, (2S,4R)-1-((S)-2-(1-fluorocyclopropane-1-carboxamido)-3,3-dimethylbutanoyl)-4-hydroxy-N-(2-(3-(4-(3-(2-hydroxyphenyl)-5-methylthieno[2,3-c]pyridazin-6-yl)piperidin-1-yl)propoxy)-4-(4-methylthiazol-5-yl)benzyl)pyrrolidine-2-carboxamide] | B (“B” indicates maximum degradation ≥ 50%) | ≥ 10 nM | < 50% | ≥ 10 nM
Cc1ncsc1-c1ccc(CNC(=O)[C@@H]2C[C@@H](O)CN2C(=O)[C@@H](NC(=O)C2(F)CC2)C(C)(C)C)c(OCC(=O)N2CCC(c3sc4nnc(-c5ccccc5O)cc4c3C)CC2)c1 [Compound 82, (2S,4R)-1-((S)-2-(1-fluorocyclopropane-1-carboxamido)-3,3-dimethylbutanoyl)-4-hydroxy-N-(2-(2-(4-(3-(2-hydroxyphenyl)-5-methylthieno[2,3-c]pyridazin-6-yl)piperidin-1-yl)-2-oxoethoxy)-4-(4-methylthiazol-5-yl)benzyl)pyrrolidine-2-carboxamide] | C (“C” indicates maximum degradation < 50%) | ≥ 1000 nM | < 50% | ≥ 1000 nM
Cc1ncsc1-c1ccc(CNC(=O)[C@@H]2C[C@@H](O)CN2C(=O)[C@@H](NC(=O)C2(F)CC2)C(C)(C)C)c(OCCN2CCC(c3sc4nnc(-c5ccccc5O)cc4c3C)CC2)c1 [Compound 83, (2S,4R)-1-((S)-2-(1-fluorocyclopropane-1-carboxamido)-3,3-dimethylbutanoyl)-4-hydroxy-N-(2-(2-(4-(3-(2-hydroxyphenyl)-5-methylthieno[2,3-c]pyridazin-6-yl)piperidin-1-yl)ethoxy)-4-(4-methylthiazol-5-yl)benzyl)pyrrolidine-2-carboxamide] | C (“C” indicates maximum degradation < 50%) | ≥ 1000 nM | < 50% | ≥ 1000 nM
Cc1ncsc1-c1ccc(CNC(=O)[C@@H]2C[C@@H](O)CN2C(=O)[C@@H](NC(=O)CCCCC(=O)N2CCC(c3cc4nnc(-c5ccccc5O)cc4s3)CC2)C(C)(C)C)cc1 [Compound 84, (2S,4R)-4-hydroxy-1-((S)-2-(6-(4-(3-(2-hydroxyphenyl)thieno[3,2-c]pyridazin-6-yl)piperidin-1-yl)-6-oxohexanamido)-3,3-dimethylbutanoyl)-N-(4-(4-methylthiazol-5-yl)benzyl)pyrrolidine-2-carboxamide] | C (“C” indicates maximum degradation < 50%) | ≥ 100 nM | < 50% | ≥ 1000 nM
Cc1ncsc1-c1ccc(CNC(=O)[C@@H]2C[C@@H](O)CN2C(=O)[C@@H](NC(=O)[C@H]2CC[C@H](c3cnc(N4CCC(c5sc6nnc(-c7ccccc7O)cc6c5C)CC4)nc3)CC2)C(C)(C)C)cc1 [Compound 85, (2S,4R)-4-hydroxy-1-((S)-2-((1r,4S)-4-(2-(4-(3-(2-hydroxyphenyl)-5-methylthieno[2,3-c]pyridazin-6-yl)piperidin-1-yl)pyrimidin-5-yl)cyclohexane-1-carboxamido)-3,3-dimethylbutanoyl)-N-(4-(4-methylthiazol-5-yl)benzyl)pyrrolidine-2-carboxamide] | A (“A” indicates maximum degradation ≥ 75%) | ≥ 10 nM | ≥ 75% | ≥ 100 nM
Cc1ncsc1-c1ccc(CNC(=O)[C@@H]2C[C@@H](O)CN2C(=O)[C@@H](NC(=O)[C@H]2CC[C@@H](c3cnc(N4CCC(c5sc6nnc(-c7ccccc7O)cc6c5C)CC4)nc3)CC2)C(C)(C)C)cc1 [Compound 86, (2S,4R)-4-hydroxy-1-((S)-2-((1s,4R)-4-(2-(4-(3-(2-hydroxyphenyl)-5-methylthieno[2,3-c]pyridazin-6-yl)piperidin-1-yl)pyrimidin-5-yl)cyclohexane-1-carboxamido)-3,3-dimethylbutanoyl)-N-(4-(4-methylthiazol-5-yl)benzyl)pyrrolidine-2-carboxamide] | C (“C” indicates maximum degradation < 50%) | ≥ 1000 nM | < 50% | ≥ 1000 nM
Cc1ncsc1-c1ccc([C@H](C)NC(=O)[C@@H]2C[C@@H](O)CN2C(=O)[C@@H](c2cc(N3CCC(N4CCC(c5cc6nnc(-c7ccccc7O)cc6s5)CC4)CC3)no2)C(C)C)cc1 [Compound 87, (2S,4R)-4-hydroxy-1-((R)-2-(3-(4-(3-(2-hydroxyphenyl)thieno[3,2-c]pyridazin-6-yl)-[1,4′-bipiperidin]-1′-yl)isoxazol-5-yl)-3-methylbutanoyl)-N-((S)-1-(4-(4-methylthiazol-5-yl)phenyl)ethyl)pyrrolidine-2-carboxamide] | A (“A” indicates maximum degradation ≥ 75%) | < 10 nM | < 50% | ≥ 1000 nM
Cc1ncsc1-c1ccc([C@H](C)NC(=O)[C@@H]2C[C@@H](O)CN2C(=O)[C@@H](c2cc(OCCN3CC4(CC(c5sc6nnc(-c7ccccc7O)cc6c5C)C4)C3)no2)C(C)C)cc1 [Compound 88, (2S,4R)-4-hydroxy-1-((R)-2-(3-(2-(6-(3-(2-hydroxyphenyl)-5-methylthieno[2,3-c]pyridazin-6-yl)-2-azaspiro[3.3]heptan-2-yl)ethoxy)isoxazol-5-yl)-3-methylbutanoyl)-N-((S)-1-(4-(4-methylthiazol-5-yl)phenyl)ethyl)pyrrolidine-2-carboxamide] | A (“A” indicates maximum degradation ≥ 75%) | ≥ 10 nM | < 50% | ≥ 1000 nM
Cc1ncsc1-c1ccc([C@H](C)NC(=O)[C@@H]2C[C@@H](O)CN2C(=O)[C@@H](c2cc(OCCN3CCC(c4c(C)sc5nnc(-c6ccccc6O)cc45)CC3)no2)C(C)C)cc1 [Compound 89, (2S,4R)-4-hydroxy-1-((R)-2-(3-(2-(4-(3-(2-hydroxyphenyl)-6-methylthieno[2,3-c]pyridazin-5-yl)piperidin-1-yl)ethoxy)isoxazol-5-yl)-3-methylbutanoyl)-N-((S)-1-(4-(4-methylthiazol-5-yl)phenyl)ethyl)pyrrolidine-2-carboxamide] | C (“C” indicates maximum degradation < 50%) | ≥ 1000 nM | < 50% | ≥ 1000 nM
